This is an account of results in ChEMBL document CHEMBL4177585, “Discovery of berberine based derivatives as anti-influenza agent through blocking of neuraminidase” (Bioorg Med Chem, 2017).

The subject of data set [1] is Influenza A virus. Kind of data set: Antiviral activity against Influenza A virus (A/Puerto Rico/8/1934(H1N1)) infected in MDCK cells assessed as reduction in virus-induced cytopathogenicity incubated for 48 hrs by SRB assay. In kind it is functional, organism-based.
Data set [2] addresses Neuraminidase (Influenza A virus (A/Puerto Rico/8/1934(H1N1)), UniProt P03468). Description: Inhibition of neuraminidase in influenza A virus (A/Puerto Rico/8/1934(H1N1)) pre-incubated for 30 mins before NA-Star substrate addition for 30 mins by luminescence based assay.
In data set [3] the test system is Influenza B virus. Kind of data set: Antiviral activity against Influenza B virus (B/Lee/40) infected in MDCK cells assessed as reduction in virus-induced cytopathogenicity incubated for 48 hrs by SRB assay. As to conditions: B/Lee/1940, MDCK. In kind it is functional, organism-based. (In general: Cytopathic effects are the visible damage that an infection or toxin causes in cultured cells.)

Data set [4] in a line: Cytotoxicity against MDCK cells incubated for 48 hrs assessed as reduction in cell viability by SRB assay. Format: cell-based, Canis lupus familiaris. Particulars: dog.
Data set [5] deals with Influenza B virus. Description: Antiviral activity against Influenza B virus (B/Maryland/1/59) infected in MDCK cells assessed as reduction in virus-induced cytopathogenicity incubated for 48 hrs by SRB assay. Format: functional, organism-based.
Data set [6] relates to Influenza A virus. Kind of data set: Antiviral activity against Influenza A virus (A/Puerto Rico/8/1934(H1N1)) infected in MDCK cells assessed as reduction in virus-induced cytopathogenicity at 1 ug/ml pre-incubated for 1 hr with virus before virus infection of cells and measured after 48 hrs by SRB assay. In kind it is functional, organism-based.
In data set [7] the test system is Influenza A virus. Kind of data set: Antiviral activity against Influenza A virus (A/Puerto Rico/8/1934(H1N1)) infected in MDCK cells assessed as reduction in virus-induced cytopathogenicity at 1 ug/ml treated before virus infection and measured after 48 hrs by SRB assay relative to untreated control. In kind it is functional.
Data set [8] relates to Influenza A virus. Description: Antiviral activity against Influenza A virus (A/Victoria/3/1975(H3N2)) infected in MDCK cells assessed as reduction in virus-induced cytopathogenicity incubated for 48 hrs by SRB assay. Format: functional, organism-based.
Data set [9] relates to Influenza A virus. Kind of data set: Antiviral activity against Influenza A virus (A/Puerto Rico/8/1934(H1N1)) infected in MDCK cells assessed as reduction in virus-induced cytopathogenicity treated 1 hr after virus infection and measured after 48 hrs by SRB assay. Format: functional, organism-based.
In data set [10] the test system is Influenza A virus. Kind of data set: Antiviral activity against Influenza A virus (A/Puerto Rico/8/1934(H1N1)) infected in MDCK cells assessed as reduction in virus-induced cytopathogenicity treated 24 hrs after virus infection and measured after 48 hrs by SRB assay. In kind it is functional, organism-based.
Data set [11] has as its system Influenza A virus. Description: Antiviral activity against Influenza A virus (A/Puerto Rico/8/1934(H1N1)) infected in MDCK cells assessed as reduction in virus-induced cytopathogenicity treated immediately after virus infection and measured after 48 hrs by SRB assay. In kind it is functional, organism-based.
Data set [12] deals with Influenza A virus. Description: Antiviral activity against Influenza A virus (A/Puerto Rico/8/1934(H1N1)) infected in MDCK cells assessed as reduction in virus-induced cytopathogenicity treated 1 hr before virus infection and measured after 48 hrs by SRB assay. Format: functional, organism-based.
Data set [13] deals with Influenza A virus. Kind of data set: Antiviral activity against Influenza A virus (A/Puerto Rico/8/1934(H1N1)) infected in MDCK cells assessed as reduction in virus-induced cytopathogenicity treated 12 hrs after virus infection and measured after 48 hrs by SRB assay. Format: functional, organism-based.
The subject of data set [14] is Influenza A virus. Kind of data set: Antiviral activity against Influenza A virus (A/Puerto Rico/8/1934(H1N1)) infected in MDCK cells assessed as reduction in virus-induced cytopathogenicity treated 6 hrs before virus infection and measured after 48 hrs by SRB assay. In kind it is functional, organism-based.
For data set [15], the system named is Influenza A virus. Description: Antiviral activity against Influenza A virus (A/Puerto Rico/8/1934(H1N1)) infected in MDCK cells assessed as reduction in virus-induced cytopathogenicity treated 2 hrs before virus infection and measured after 48 hrs by SRB assay. In kind it is functional, organism-based.
The subject of data set [16] is Influenza A virus. Description: Antiviral activity against Influenza A virus (A/Puerto Rico/8/1934(H1N1)) infected in MDCK cells assessed as reduction in virus-induced cytopathogenicity treated 7 hrs after virus infection and measured after 48 hrs by SRB assay. Format: functional, organism-based.
The target of data set [17] is Neuraminidase (Influenza A virus (A/Puerto Rico/8/1934(H1N1))) (UniProt P03468). Description: Inhibition of neuraminidase in influenza A virus (A/Puerto Rico/8/1934(H1N1)) assessed as remaining enzyme activity at 1 ug/ml pre-incubated for 30 mins before NA-Star substrate addition for 30 mins by luminescence based assay.
Neuraminidase (Influenza A virus (A/Puerto Rico/8/1934(H1N1))), sequence (P03468 whole entry): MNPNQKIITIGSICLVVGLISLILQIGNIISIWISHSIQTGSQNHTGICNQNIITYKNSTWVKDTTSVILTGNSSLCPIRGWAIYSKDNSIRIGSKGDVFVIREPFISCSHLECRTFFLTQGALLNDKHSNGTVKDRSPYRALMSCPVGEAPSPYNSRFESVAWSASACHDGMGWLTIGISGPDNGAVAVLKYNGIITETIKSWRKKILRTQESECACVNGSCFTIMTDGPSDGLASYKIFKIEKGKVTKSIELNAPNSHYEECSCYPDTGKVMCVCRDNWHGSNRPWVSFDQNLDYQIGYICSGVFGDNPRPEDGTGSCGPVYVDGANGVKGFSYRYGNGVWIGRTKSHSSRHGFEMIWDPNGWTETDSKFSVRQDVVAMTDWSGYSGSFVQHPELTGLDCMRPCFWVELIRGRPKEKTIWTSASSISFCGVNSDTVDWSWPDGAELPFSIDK
Data set [18] deals with Influenza A virus. Description: Antiviral activity against Influenza A virus (A/Puerto Rico/8/1934(H1N1)) infected in MDCK cells assessed as reduction in virus-induced cytopathogenicity treated 2 hrs after virus infection and measured after 48 hrs by SRB assay. Format: functional, organism-based.
In data set [19] the target is Neuraminidase (Influenza A virus (A/Puerto Rico/8/1934(H1N1))) (UniProt P03468). Kind of data set: Inhibition of neuraminidase in influenza A virus (A/Puerto Rico/8/1934(H1N1)) assessed as remaining enzyme activity at 10 ug/ml pre-incubated for 30 mins before NA-Star substrate addition for 30 mins by luminescence based assay.
For data set [20], the system named is Influenza A virus. Description: Antiviral activity against Influenza A virus (A/Puerto Rico/8/1934(H1N1)) infected in MDCK cells assessed as reduction in virus-induced cytopathogenicity treated 4 hrs after virus infection and measured after 48 hrs by SRB assay. Format: functional, organism-based.
For data set [21], the target named is Neuraminidase (Influenza A virus (A/Puerto Rico/8/1934(H1N1))) (UniProt P03468). Kind of data set: Inhibition of neuraminidase in influenza A virus (A/Puerto Rico/8/1934(H1N1)) assessed as remaining enzyme activity at 0.1 ug/ml pre-incubated for 30 mins before NA-Star substrate addition for 30 mins by luminescence based assay.

Each structure is given as a SMILES string. In brackets after ≈: the same amount, converted by molar mass. Activity calls are given as the source filed them. The calls are words filed in the database; no cut-off is given here. Where only a bound is given, the exact number is not on record here.

Neuraminidase (Influenza A virus (A/Puerto Rico/8/1934(H1N1)), UniProt P03468), sequence (P03468 whole entry): as above

Regarding `COc1cc(CN2CCN(c3cccc(Cl)c3)CC2)c2cc3[n+](cc2c1O)CCc1cc2c(cc1-3)OCO2.[Cl-]`, in the data set with Influenza A virus [1], the IC50 (usually the midpoint of a concentration-inhibition curve) stood at 29.6 µg/mL. Moreover, affinity in data set [2] was put at a Ki of 250 nM.
Regarding `COc1cc(CN2CCN(c3ccc(C)cc3)CC2)c2cc3[n+](cc2c1O)CCc1cc2c(cc1-3)OCO2.[Cl-]`, the IC50 in the data set with Influenza B virus [3] stood at 6.17 µg/mL; in the data set with Influenza A virus [1] it was 1.48 µg/mL; in the data set on Influenza B virus [5], 5.1 µg/mL; with Influenza A virus [8] it was 2.13 µg/mL. Also, the Ki – broadly, a measure of affinity in units of concentration, obtained from inhibition or displacement – in [2] amounted to 290 nM. In addition, the cytotoxic concentration (CC50) (commonly the concentration at which the toxic effect on the cells reaches its halfway point) at 48 h in data set [4] is 68.5 µg/mL. In addition, the result in the data set on Influenza A virus [6] was Active. Also, the inhibition (commonly the change of the read-out against control, counted positive when it falls) at 1 µg/mL in the data set on Influenza A virus [7] amounted to 25.3%.
Consider `COc1cc(CN2CCN(c3ccc(C(F)(F)F)cc3)CC2)c2cc3[n+](cc2c1O)CCc1cc2c(cc1-3)OCO2.[Cl-]`, for which the IC50 with Influenza A virus [1] was 10 µg/mL. In data set [2], this compound returned a Ki of 1590 nM.
For the compound `COc1cc(CN2CCN(c3ccccn3)CC2)c2cc3[n+](cc2c1O)CCc1cc2c(cc1-3)OCO2.[Cl-]`, the IC50 in the data set with Influenza A virus [1] turned out to be 2.64 µg/mL. This compound also returned a Ki in data set [2] of 170 nM. For the same compound, the CC50 at 48 h in [4] amounted to 185 µg/mL.
Consider `COc1cc(CN2CCN(c3ccc(F)cc3)CC2)c2cc3[n+](cc2c1O)CCc1cc2c(cc1-3)OCO2.[Cl-]`, for which the IC50 was 1.22 µg/mL in the data set on Influenza A virus [9]; 4.12 µg/mL in the data set on Influenza B virus [3]; > 100 µg/mL with Influenza A virus [10]; 0.89 µg/mL in the data set with Influenza A virus [11]; 0.87 µg/mL in the data set on Influenza A virus [1]; 3.4 µg/mL with Influenza A virus [12]. Further, the IC50 with Influenza B virus [5] was 3.12 µg/mL; with Influenza A virus [13], 23.2 µg/mL; with Influenza A virus [14] it was 52.4 µg/mL; in the data set with Influenza A virus [15], 21.3 µg/mL; in the data set with Influenza A virus [16], 9.38 µg/mL; in the data set on Influenza A virus [18] it was 1.19 µg/mL. Moreover, the IC50 in the data set with Influenza A virus [20] was determined as 1.75 µg/mL; with Influenza A virus [8], 1.15 µg/mL. In data set [2], this compound returned a Ki of 480 nM. Besides, the CC50 at 48 h in [4] amounted to 72.6 µg/mL. Also, the result in the data set with Influenza A virus [6] was Active. For the same compound, the inhibition at 1 µg/mL in the data set on Influenza A virus [7] was 48.3%. For the same compound, the figures for the Activity in data set [17], in data set [19] and in data set [21] were 23.4%, 16.6% and 43.1%, respectively.
`COc1cc(CN2CCN(c3ccc(OC(F)(F)F)cc3)CC2)c2cc3[n+](cc2c1O)CCc1cc2c(cc1-3)OCO2.[Cl-]`: in the data set on Influenza A virus [1], the IC50 was 8.45 µg/mL. In [2], the affinity, expressed as Ki, was 490 nM. Moreover, the CC50 at 48 h in data set [4] came out at 312 µg/mL.
As for `COc1cc(CN2CCN(C(c3ccccc3)c3ccccc3)CC2)c2cc3[n+](cc2c1O)CCc1cc2c(cc1-3)OCO2.[Cl-]`, the IC50 in the data set with Influenza A virus [1] was 3.14 µg/mL. This compound also showed a Ki in [2] of 490 nM.
For `COc1cc(CN2CCN(c3ccc4ccccc4c3)CC2)c2cc3[n+](cc2c1O)CCc1cc2c(cc1-3)OCO2.[Cl-]`, in the data set with Influenza A virus [1], the IC50 turned out to be 20 µg/mL. Moreover, the Ki in data set [2] was determined as 240 nM. The CC50 at 48 h in data set [4] amounted to 150 µg/mL.
As to `CCOC(=O)C1=C[C@@H](OC(CC)CC)[C@H](NC(C)=O)[C@@H](N)C1` [OSELTAMIVIR], the IC50 in the data set with Influenza A virus [9] is 6.13 µg/mL (≈ 19.6 µM); in the data set with Influenza B virus [3], 41.9 µg/mL (≈ 134 µM); in the data set with Influenza A virus [10] it was > 100 µg/mL; in the data set on Influenza A virus [11], 4.12 µg/mL (≈ 13.2 µM); in the data set with Influenza A virus [1], 3.19 µg/mL (≈ 10.2 µM); in the data set with Influenza A virus [12], 69.8 µg/mL (≈ 223 µM). The IC50 in the data set with Influenza B virus [5] was 33.2 µg/mL (≈ 106 µM); in the data set with Influenza A virus [13] it was 84.3 µg/mL (≈ 270 µM); in the data set on Influenza A virus [14], > 100 µg/mL; with Influenza A virus [15], 71.5 µg/mL (≈ 229 µM); in the data set with Influenza A virus [16], 12.8 µg/mL (≈ 40.8 µM); in the data set on Influenza A virus [18], 6.05 µg/mL (≈ 19.4 µM). For the same compound, the IC50 turned out to be 7.39 µg/mL (≈ 23.7 µM) in the data set with Influenza A virus [20] and 12.1 µg/mL (≈ 38.9 µM) with Influenza A virus [8]. Further, the result with Influenza A virus [6] was Active. Moreover, in the data set with Influenza A virus [7], the inhibition at 1 µg/mL amounted to 25.7%. In addition, the Activity was 32.9% in data set [17], 22.6% in data set [19] and 41.9% in data set [21].
With `COc1cc(CN2CCN(c3ccc(C)cc3C)CC2)c2cc3[n+](cc2c1O)CCc1cc2c(cc1-3)OCO2.[Cl-]`, in the data set with Influenza A virus [1], the IC50 was 60.1 µg/mL. The compound also gave a Ki in data set [2] of 420 nM. Further, the CC50 at 48 h in [4] turned out to be 134 µg/mL.
In the same order, the values of `COc1cc(CN2CCOCC2)c2cc3[n+](cc2c1O)CCc1cc2c(cc1-3)OCO2.[Cl-]` are 44.3 µg/mL, 480 nM and 126 µg/mL.
Consider `COc1cc(CN2CCN(c3ccc([N+](=O)[O-])cc3)CC2)c2cc3[n+](cc2c1O)CCc1cc2c(cc1-3)OCO2.[Cl-]`, for which the IC50 in the data set with Influenza A virus [1] was > 50 µg/mL. In data set [2], this compound came in with a Ki of 1330 nM. For the same compound, the CC50 at 48 h in [4] is 1380 µg/mL.
